Data as given in patent EP3717657B1, “A SYSTEM FOR ASSESSING MICROBIAL SUSCEPTIBILITY TO ANTIBIOTIC AGENTS” (Ascilion AB, priority 2017, dated 2019).
Values after ≈ are worked out from the molar mass of the structure shown.

Tests used:
[1] = tested on: Escherichia coli ATCC 25922; conditions: E.coli, cited from earlier work
[2] = tested on: Staphylococcus aureus ATCC 29213; conditions: S.aureus, cited from earlier work; for MIC EUCAST, range in parentheses: range obtained by EUCAST from ISO 20776-1: 2006; for MIC EUCAST: reference MIC value, EUCAST QC tables Version 7.0, 2017
[3] = tested on: Staphylococcus aureus (ATCC 29213); test: Antibiotic susceptibility by glucose consumption in culture medium, blood culture bottle inoculum (Example 1); format: cell-based; conditions: for Glucose concentration t=0: 0 minutes; for Glucose concentration t=60: 60 minutes; for Glucose concentration t=120: 120 minutes; for Glucose concentration t=180: 180 minutes; for Glucose concentration t=240: 240 minutes; for dC/dT: rate of change in glucose concentration;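 as to dC/dT: rate calculated between the 60 and 180 min readings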
Method in brief: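 Bacteria grown in blood culture bottles until positive, diluted 1:100 into cation-adjusted Mueller-Hinton broth with glucose at 1.0 mg/mL plus antibiotic (µg/mL). Glucose read by glucometer at 0–240 min.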

[4] = tested on: Enterococcus faecalis ATCC 29212; conditions: E.faecalis, cited from earlier work
[5] = range obtained by EUCAST from ISO 20776-1: 2006
[6] = reference MIC value, EUCAST QC tables Version 7.0, 2017

## CO[C@@]1(NC(=O)Cc2cccs2)C(=O)N2C(C(=O)O)=C(COC(N)=O)CS[C@@H]21 [Cefoxitin]
[1]; [5]
  MIC EUCAST, range in parentheses: 2 to 8 µg/mL
[1]; [6]
  MIC EUCAST: 4 µg/mL (≈ 9.36 µM)
[2]
  MIC EUCAST, range in parentheses: 1 to 4 µg/mL
  MIC EUCAST: 2 µg/mL (≈ 4.68 µM)
[3]; Staphylococcus aureus, ATCC29213, S.aureus, 80% threshold of rate of change vs reference, between 60 and 180 minutes, obtained in 4 hours, read-out: MIC Measured
  MIC: 2 µg/mL (≈ 4.68 µM)
[3]; [Ab] 0,5 µg/mL
  F=the rate of change in glucose concentration in relation to the reference: 96%
  Glucose concentration t=0: 144
  Glucose concentration t=60: 155
  Glucose concentration t=120: 130
  Glucose concentration t=180: 91
  Glucose concentration t=240: 32
  dC/dT: 32
[3]; [Ab] 0,25 µg/mL
  F=the rate of change in glucose concentration in relation to the reference: 91%
  Glucose concentration t=0: 143
  Glucose concentration t=60: 152
  Glucose concentration t=120: 132
  Glucose concentration t=180: 91
  Glucose concentration t=240: 33
  dC/dT: 31
[3]; [Ab] 1 µg/mL
  F=the rate of change in glucose concentration in relation to the reference: 82%
  Glucose concentration t=0: 147
  Glucose concentration t=60: 155
  Glucose concentration t=120: 133
  Glucose concentration t=180: 100
  Glucose concentration t=240: 40
  dC/dT: 28
[3]; [Ab] 2 µg/mL
  F=the rate of change in glucose concentration in relation to the reference: 72%
  Glucose concentration t=0: 141
  Glucose concentration t=60: 146
  Glucose concentration t=120: 143
  Glucose concentration t=180: 98
  Glucose concentration t=240: 61
  dC/dT: 24
[3]; [Ab] 4 µg/mL
  F=the rate of change in glucose concentration in relation to the reference: 16%
  Glucose concentration t=0: 142
  Glucose concentration t=60: 150
  Glucose concentration t=120: 143
  Glucose concentration t=180: 139
  Glucose concentration t=240: 139
  dC/dT: 6
[3]; [Ab] 8 µg/mL
  F=the rate of change in glucose concentration in relation to the reference: 24%
  Glucose concentration t=0: 136
  Glucose concentration t=60: 157
  Glucose concentration t=120: 160
  Glucose concentration t=180: 141
  Glucose concentration t=240: 149
  dC/dT: 8
[3]; [Ab] 16 µg/mL
  F=the rate of change in glucose concentration in relation to the reference: 22%
  Glucose concentration t=0: 140
  Glucose concentration t=60: 157
  Glucose concentration t=120: 152
  Glucose concentration t=180: 142
  Glucose concentration t=240: 142
  dC/dT: 8
[3]; [Ab] 32 µg/mL
  F=the rate of change in glucose concentration in relation to the reference: 27%
  Glucose concentration t=0: 145
  Glucose concentration t=60: 154
  Glucose concentration t=120: 145
  Glucose concentration t=180: 136
  Glucose concentration t=240: 139
  dC/dT: 9

## CN[C@H](CC(C)C)C(=O)N[C@H]1C(=O)N[C@@H](CC(N)=O)C(=O)N[C@H]2C(=O)N[C@H]3C(=O)N[C@H](C(=O)N[C@H](C(=O)O)c4cc(O)cc(O)c4-c4cc3ccc4O)[C@H](O)c3ccc(c(Cl)c3)Oc3cc2cc(c3O[C@@H]2O[C@H](CO)[C@@H](O)[C@H](O)[C@H]2O[C@H]2C[C@](C)(N)[C@H](O)[C@H](C)O2)Oc2ccc(cc2Cl)[C@H]1O [Vancomycin]
[2]
  MIC EUCAST, range in parentheses: 0.5 to 2 µg/mL
  MIC EUCAST: 1 µg/mL (≈ 0.69 µM)
[4]; [5]
  MIC EUCAST, range in parentheses: 1 to 4 µg/mL
[4]; [6]
  MIC EUCAST: 2 µg/mL (≈ 1.38 µM)
[3]; [Ab] 0,5 µg/mL
  F=the rate of change in glucose concentration in relation to the reference: 84%
  Glucose concentration t=60: 156
  Glucose concentration t=120: 142
  Glucose concentration t=180: 100
  Glucose concentration t=240: 51
  dC/dT: 28
[3]; [Ab] 0,25 µg/mL
  F=the rate of change in glucose concentration in relation to the reference: 75%
  Glucose concentration t=60: 142
  Glucose concentration t=120: 133
  Glucose concentration t=180: 92
  Glucose concentration t=240: 42
  dC/dT: 25
[3]; [Ab] 1 µg/mL
  F=the rate of change in glucose concentration in relation to the reference: 96%
  Glucose concentration t=60: 161
  Glucose concentration t=120: 140
  Glucose concentration t=180: 97
  Glucose concentration t=240: 51
  dC/dT: 32
[3]; [Ab] 2 µg/mL
  F=the rate of change in glucose concentration in relation to the reference: 88%
  Glucose concentration t=60: 160
  Glucose concentration t=120: 143
  Glucose concentration t=180: 101
  Glucose concentration t=240: 53
  dC/dT: 30
[3]; [Ab] 4 µg/mL
  F=the rate of change in glucose concentration in relation to the reference: 39%
  Glucose concentration t=60: 157
  Glucose concentration t=120: 147
  Glucose concentration t=180: 131
  Glucose concentration t=240: 107
  dC/dT: 13
[3]; [Ab] 8 µg/mL
  F=the rate of change in glucose concentration in relation to the reference: 6%
  Glucose concentration t=60: 150
  Glucose concentration t=120: 150
  Glucose concentration t=180: 146
  Glucose concentration t=240: 149
  dC/dT: 2
[3]; [Ab] 16 µg/mL
  F=the rate of change in glucose concentration in relation to the reference: 7%
  Glucose concentration t=60: 157
  Glucose concentration t=120: 153
  Glucose concentration t=180: 152
  Glucose concentration t=240: 149
  dC/dT: 3
[3]; [Ab] 32 µg/mL
  F=the rate of change in glucose concentration in relation to the reference: 13%
  Glucose concentration t=60: 157
  Glucose concentration t=120: 140
  Glucose concentration t=180: 148
  Glucose concentration t=240: 146
  dC/dT: 5
